In the kinase profiling compilation of Christmann-Franck et al. (2016):

Assays:
Experiment in all cases: Flashplate
[1] = molecular target: AKT1 (human) (UniProt P31749)
[2] = molecular target: AKT2 (human) (UniProt P31751)
[3] = molecular target: AURKB (human) (UniProt Q96GD4)
[4] = molecular target: BRSK1 (human) (UniProt Q8TDC3)
[5] = molecular target: CAMK1 (human) (UniProt Q14012)
[6] = molecular target: CAMK2D (human) (UniProt Q13557)
[7] = molecular target: CDC42BPA (human) (UniProt Q5VT25)
[8] = molecular target: CDK1 (human) (UniProt P06493)
[9] = molecular target: CLK2 (human) (UniProt P49760)
[10] = molecular target: CSNK1G2 (human) (UniProt P78368)
[11] = molecular target: CSNK1G3 (human) (UniProt Q9Y6M4)
[12] = molecular target: CSNK2A1 (human) (UniProt P68400)
[13] = molecular target: DCLK1 (human) (UniProt O15075)
[14] = molecular target: DYRK1A (human) (UniProt Q13627)
[15] = molecular target: DYRK3 (human) (UniProt O43781)
[16] = molecular target: GSK3A (human) (UniProt P49840)
[17] = molecular target: HIPK4 (human) (UniProt Q8NE63)
[18] = molecular target: IRAK4 (human) (UniProt Q9NWZ3)
[19] = molecular target: MAP4K2 (human) (UniProt Q12851)
[20] = molecular target: MAPK13 (human) (UniProt O15264)
[21] = molecular target: MARK3 (human) (UniProt P27448)
[22] = molecular target: MELK (human) (UniProt Q14680)
[23] = molecular target: MKNK2 (human) (UniProt Q9HBH9)
[24] = molecular target: NEK2 (human) (UniProt P51955)
[25] = molecular target: NEK4 (human) (UniProt P51957)
[26] = molecular target: PAK4 (human) (UniProt O96013)
[27] = molecular target: PBK (human) (UniProt Q96KB5)
[28] = molecular target: PIM1 (human) (UniProt P11309)
[29] = molecular target: PIM2 (human) (UniProt Q9P1W9)
[30] = molecular target: PKN2 (human) (UniProt Q16513)
[31] = molecular target: PLK1 (human) (UniProt P53350)
[32] = molecular target: PRKCG (human) (UniProt P05129)
[33] = molecular target: PRKCI (human) (UniProt P41743)
[34] = molecular target: PRKCZ (human) (UniProt Q05513)
[35] = molecular target: PRKD3 (human) (UniProt O94806)
[36] = molecular target: PRKG2 (human) (UniProt Q13237)
[37] = molecular target: SGK1 (human) (UniProt O00141)
[38] = molecular target: SRPK1 (human) (UniProt Q96SB4)
[39] = molecular target: TAOK1 (human) (UniProt Q7L7X3)
[40] = molecular target: TSSK1B (human) (UniProt Q9BXA7)
[41] = molecular target: TSSK2 (human) (UniProt Q96PF2)

Sequence of PIM2 (human) (Q9P1W9 whole entry, looked up): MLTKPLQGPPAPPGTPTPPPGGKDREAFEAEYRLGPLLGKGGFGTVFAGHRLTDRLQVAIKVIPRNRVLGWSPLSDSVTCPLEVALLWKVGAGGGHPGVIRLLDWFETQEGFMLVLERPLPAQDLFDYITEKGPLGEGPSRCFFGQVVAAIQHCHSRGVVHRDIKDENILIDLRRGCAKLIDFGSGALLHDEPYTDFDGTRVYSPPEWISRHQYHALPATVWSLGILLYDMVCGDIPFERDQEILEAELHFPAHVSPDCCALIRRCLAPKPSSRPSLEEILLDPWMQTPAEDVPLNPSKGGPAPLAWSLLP
Sequence of PKN2 (human) (Q16513 whole entry, looked up): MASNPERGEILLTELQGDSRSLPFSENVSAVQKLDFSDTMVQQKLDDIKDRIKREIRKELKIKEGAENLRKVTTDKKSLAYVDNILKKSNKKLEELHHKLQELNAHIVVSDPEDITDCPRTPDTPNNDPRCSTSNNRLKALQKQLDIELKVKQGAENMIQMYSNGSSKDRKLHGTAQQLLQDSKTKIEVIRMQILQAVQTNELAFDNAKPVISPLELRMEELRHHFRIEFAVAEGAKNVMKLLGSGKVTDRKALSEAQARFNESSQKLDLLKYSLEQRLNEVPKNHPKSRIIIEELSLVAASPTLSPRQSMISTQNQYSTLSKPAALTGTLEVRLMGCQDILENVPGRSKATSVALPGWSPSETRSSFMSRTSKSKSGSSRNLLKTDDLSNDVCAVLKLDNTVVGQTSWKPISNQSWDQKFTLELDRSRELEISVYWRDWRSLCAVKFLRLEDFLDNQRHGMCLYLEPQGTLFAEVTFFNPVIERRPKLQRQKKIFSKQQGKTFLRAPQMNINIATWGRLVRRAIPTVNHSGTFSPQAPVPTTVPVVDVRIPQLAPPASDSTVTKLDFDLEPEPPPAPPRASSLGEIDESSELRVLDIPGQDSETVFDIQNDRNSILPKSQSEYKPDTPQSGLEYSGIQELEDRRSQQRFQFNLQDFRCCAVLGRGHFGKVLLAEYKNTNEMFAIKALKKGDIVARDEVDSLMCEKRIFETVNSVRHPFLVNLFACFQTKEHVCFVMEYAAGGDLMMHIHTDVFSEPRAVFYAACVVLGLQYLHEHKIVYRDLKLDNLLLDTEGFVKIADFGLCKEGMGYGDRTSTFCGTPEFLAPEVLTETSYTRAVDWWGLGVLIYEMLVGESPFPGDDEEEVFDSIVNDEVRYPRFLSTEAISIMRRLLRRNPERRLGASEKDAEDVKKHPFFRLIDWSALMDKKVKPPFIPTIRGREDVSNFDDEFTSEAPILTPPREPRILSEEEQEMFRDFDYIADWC
Sequence of DYRK3 (human) (O43781 whole entry, looked up): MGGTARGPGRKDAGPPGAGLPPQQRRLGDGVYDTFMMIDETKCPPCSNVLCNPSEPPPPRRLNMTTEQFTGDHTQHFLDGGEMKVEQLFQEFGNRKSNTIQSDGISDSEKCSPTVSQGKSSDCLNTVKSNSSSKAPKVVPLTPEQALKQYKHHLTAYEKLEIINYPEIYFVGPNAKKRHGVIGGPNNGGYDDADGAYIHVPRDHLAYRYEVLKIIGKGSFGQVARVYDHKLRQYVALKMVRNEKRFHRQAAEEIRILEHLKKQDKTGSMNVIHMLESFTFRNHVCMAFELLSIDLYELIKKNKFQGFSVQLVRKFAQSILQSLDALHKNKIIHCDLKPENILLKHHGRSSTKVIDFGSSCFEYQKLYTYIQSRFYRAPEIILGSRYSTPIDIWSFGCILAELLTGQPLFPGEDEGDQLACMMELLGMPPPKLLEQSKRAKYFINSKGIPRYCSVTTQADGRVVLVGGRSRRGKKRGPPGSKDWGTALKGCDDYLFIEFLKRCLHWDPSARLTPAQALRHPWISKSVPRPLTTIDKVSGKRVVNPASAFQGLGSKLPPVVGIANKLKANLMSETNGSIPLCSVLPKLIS
Sequence of TSSK1B (human) (Q9BXA7 whole entry, looked up): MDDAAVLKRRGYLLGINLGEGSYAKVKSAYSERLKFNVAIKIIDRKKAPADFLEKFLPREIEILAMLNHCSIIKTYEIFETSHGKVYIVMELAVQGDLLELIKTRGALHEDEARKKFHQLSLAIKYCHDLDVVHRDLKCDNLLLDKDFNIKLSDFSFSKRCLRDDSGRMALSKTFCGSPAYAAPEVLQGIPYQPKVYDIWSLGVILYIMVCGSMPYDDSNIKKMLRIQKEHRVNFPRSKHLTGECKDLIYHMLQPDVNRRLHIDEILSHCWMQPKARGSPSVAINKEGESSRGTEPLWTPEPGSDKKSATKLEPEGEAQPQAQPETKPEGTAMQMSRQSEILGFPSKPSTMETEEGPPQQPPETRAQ
Sequence of PBK (human) (Q96KB5 whole entry, looked up): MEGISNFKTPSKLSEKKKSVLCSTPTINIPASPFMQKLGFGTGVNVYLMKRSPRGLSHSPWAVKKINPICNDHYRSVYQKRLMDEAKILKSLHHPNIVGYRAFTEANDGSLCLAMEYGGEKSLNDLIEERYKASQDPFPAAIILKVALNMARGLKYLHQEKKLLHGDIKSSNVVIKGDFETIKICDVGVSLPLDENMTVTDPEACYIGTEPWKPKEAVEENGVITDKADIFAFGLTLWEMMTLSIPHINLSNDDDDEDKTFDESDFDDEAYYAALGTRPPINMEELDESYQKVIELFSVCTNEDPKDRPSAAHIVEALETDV
Sequence of MAP4K2 (human) (Q12851 whole entry, looked up): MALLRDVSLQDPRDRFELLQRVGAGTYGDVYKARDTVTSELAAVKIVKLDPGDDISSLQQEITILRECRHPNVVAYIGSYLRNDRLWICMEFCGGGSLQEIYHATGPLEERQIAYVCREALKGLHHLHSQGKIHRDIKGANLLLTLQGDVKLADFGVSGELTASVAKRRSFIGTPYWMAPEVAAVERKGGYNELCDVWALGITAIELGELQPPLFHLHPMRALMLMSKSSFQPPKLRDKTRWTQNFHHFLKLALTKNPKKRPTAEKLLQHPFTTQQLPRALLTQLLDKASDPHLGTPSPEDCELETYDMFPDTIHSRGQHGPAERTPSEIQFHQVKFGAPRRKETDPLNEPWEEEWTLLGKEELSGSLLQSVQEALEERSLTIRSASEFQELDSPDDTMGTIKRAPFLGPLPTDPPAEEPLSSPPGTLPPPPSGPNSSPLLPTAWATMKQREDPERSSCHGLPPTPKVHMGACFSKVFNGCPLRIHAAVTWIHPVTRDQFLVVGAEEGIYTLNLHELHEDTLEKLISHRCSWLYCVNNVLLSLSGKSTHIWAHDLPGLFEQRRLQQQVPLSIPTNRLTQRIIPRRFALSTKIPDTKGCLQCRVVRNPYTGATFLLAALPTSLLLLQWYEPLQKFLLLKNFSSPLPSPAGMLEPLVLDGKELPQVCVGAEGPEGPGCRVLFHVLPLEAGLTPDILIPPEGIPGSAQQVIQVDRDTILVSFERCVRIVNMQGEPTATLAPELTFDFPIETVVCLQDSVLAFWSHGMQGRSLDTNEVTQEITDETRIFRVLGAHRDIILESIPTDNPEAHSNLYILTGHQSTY
Sequence of CDK1 (human) (P06493 whole entry, looked up): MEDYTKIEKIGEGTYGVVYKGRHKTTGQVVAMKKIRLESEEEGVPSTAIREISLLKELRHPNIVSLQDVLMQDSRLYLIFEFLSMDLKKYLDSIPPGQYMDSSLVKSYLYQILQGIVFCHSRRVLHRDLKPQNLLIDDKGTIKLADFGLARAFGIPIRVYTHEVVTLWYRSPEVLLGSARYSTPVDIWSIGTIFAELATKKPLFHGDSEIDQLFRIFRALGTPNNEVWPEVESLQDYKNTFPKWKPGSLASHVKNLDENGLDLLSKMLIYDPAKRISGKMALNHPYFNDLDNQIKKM
Sequence of NEK4 (human) (P51957 whole entry, looked up): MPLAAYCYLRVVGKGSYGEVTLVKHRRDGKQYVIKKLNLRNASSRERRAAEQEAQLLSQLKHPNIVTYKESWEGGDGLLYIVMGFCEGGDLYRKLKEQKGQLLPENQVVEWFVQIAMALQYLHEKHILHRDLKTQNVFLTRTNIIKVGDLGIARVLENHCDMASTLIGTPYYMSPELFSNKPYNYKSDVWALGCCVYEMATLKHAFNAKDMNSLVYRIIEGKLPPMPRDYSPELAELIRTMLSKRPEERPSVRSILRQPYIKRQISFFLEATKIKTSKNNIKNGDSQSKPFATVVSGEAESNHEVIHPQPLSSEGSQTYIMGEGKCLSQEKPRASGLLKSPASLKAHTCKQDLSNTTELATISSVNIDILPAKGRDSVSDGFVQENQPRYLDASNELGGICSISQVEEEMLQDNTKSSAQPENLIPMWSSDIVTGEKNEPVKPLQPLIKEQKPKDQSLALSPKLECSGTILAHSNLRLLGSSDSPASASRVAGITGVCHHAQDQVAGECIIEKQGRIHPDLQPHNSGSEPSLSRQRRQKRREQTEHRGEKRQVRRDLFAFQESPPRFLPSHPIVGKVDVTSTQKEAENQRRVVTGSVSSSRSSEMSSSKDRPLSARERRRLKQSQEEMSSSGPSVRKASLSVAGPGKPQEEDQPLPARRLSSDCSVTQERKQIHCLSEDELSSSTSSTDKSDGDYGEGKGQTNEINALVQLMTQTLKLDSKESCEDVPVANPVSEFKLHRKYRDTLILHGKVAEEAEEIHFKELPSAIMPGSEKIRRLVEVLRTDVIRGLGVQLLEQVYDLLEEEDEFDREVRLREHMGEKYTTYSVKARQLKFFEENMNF
Sequence of GSK3A (human) (P49840 whole entry, looked up): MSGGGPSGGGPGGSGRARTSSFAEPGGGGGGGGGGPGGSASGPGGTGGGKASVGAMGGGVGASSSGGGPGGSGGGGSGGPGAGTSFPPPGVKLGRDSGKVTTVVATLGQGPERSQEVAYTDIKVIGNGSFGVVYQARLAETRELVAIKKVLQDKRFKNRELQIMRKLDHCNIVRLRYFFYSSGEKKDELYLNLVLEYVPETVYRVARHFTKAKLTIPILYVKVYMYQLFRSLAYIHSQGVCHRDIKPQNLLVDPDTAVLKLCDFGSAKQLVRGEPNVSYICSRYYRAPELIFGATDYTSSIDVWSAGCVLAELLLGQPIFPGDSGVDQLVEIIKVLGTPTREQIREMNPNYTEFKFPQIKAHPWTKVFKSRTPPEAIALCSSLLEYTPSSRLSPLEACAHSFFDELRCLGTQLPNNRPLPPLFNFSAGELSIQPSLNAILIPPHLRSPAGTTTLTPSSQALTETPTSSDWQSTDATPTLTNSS

## O=C1c2ccccc2-c2n[nH]c3cccc1c23
[1]
  Ki: > 7.94 µM
[2]
  Ki: > 7.94 µM
[3]
  Ki: 10 nM
[4]
  Ki: 794 nM
[5]
  Ki: > 1580 nM
[6]
  Ki: 1000 nM
[7]
  Ki: > 10 µM
[8]
  Ki: 1000 nM
[9]
  Ki: 631 nM
[10]
  Ki: 2000 nM
[11]
  Ki: 1000 nM
[12]
  Ki: 501 nM
[13]
  Ki: > 10 µM
[14]
  Ki: 126 nM
[15]
  Ki: 316 nM
[16]
  Ki: 1260 nM
[17]
  Ki: 2000 nM
[18]
  Ki: 158 nM
[19]
  Ki: 50.1 nM
[20]
  Ki: > 7.94 µM
[21]
  Ki: 3.98 nM
[22]
  Ki: 398 nM
[23]
  Ki: 316 nM
[24]
  Ki: 6.31 µM
[25]
  Ki: 1000 nM
[26]
  Ki: > 5.01 µM
[27]
  Ki: 1000 nM
[28]
  Ki: 501 nM
[29]
  Ki: 316 nM
[30]
  Ki: > 7.94 µM
[31]
  Ki: > 7.94 µM
[32]
  Ki: 316 nM
[33]
  Ki: > 5.01 µM
[34]
  Ki: > 7.94 µM
[35]
  Ki: 100 nM
[36]
  Ki: > 1580 nM
[37]
  Ki: 251 nM
[38]
  Ki: > 7.94 µM
[39]
  Ki: 5.01 µM
[40]
  Ki: > 1580 nM
[41]
  Ki: > 1580 nM
